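Tested at 5 concentrations; 48 h exposure; 96-well plates; endpoints linearly interpolated, else capped at highest concentration. The concentration for full growth arrest is given as TGI.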
How the values were obtained:
Assay in all cases: NCI anticancer screen, dose series, 48 h
SK-MEL-5 melanoma = test system: SK-MEL-5 melanoma
MOLT-4 leukemia = test system: MOLT-4 leukemia
SR leukemia = test system: SR leukemia
SK-MEL-28 melanoma = test system: SK-MEL-28 melanoma
UACC-257 melanoma = test system: UACC-257 melanoma
HCC-2998 colon = test system: HCC-2998 colon
786-0 renal = test system: 786-0 renal
HCT-116 colon = test system: HCT-116 colon
A498 renal = test system: A498 renal
SK-MEL-2 melanoma = test system: SK-MEL-2 melanoma
HS 578T breast = test system: HS 578T breast
MCF7 breast = test system: MCF7 breast
SNB-19 CNS = test system: SNB-19 CNS
DU-145 prostate = test system: DU-145 prostate
MDA-N = test system: MDA-N

Compound	TGI (SK-MEL-5 melanoma)	TGI (MOLT-4 leukemia)	TGI (SR leukemia)	TGI (SK-MEL-28 melanoma)	TGI (UACC-257 melanoma)	TGI (HCC-2998 colon)	TGI (786-0 renal)	TGI (HCT-116 colon)	TGI (A498 renal)	TGI (SK-MEL-2 melanoma)	TGI (HS 578T breast)	TGI (MCF7 breast)	TGI (SNB-19 CNS)	TGI (DU-145 prostate)	TGI (MDA-N)
CCOC(=O)/C(=C/c1ccco1)P(=O)(OCC)OCC	> 100 µM	> 100 µM	> 100 µM	> 100 µM	> 100 µM	> 100 µM	> 100 µM	> 100 µM	> 100 µM	> 100 µM	–	–	–	–	–
COC(=O)/C=C\S/C(=C(/c1ccccc1)n1ccc(C(=O)OC)n1)c1ccccc1	> 100 µM	> 100 µM	> 100 µM	> 100 µM	> 100 µM	> 100 µM	36.6 µM	> 100 µM	–	59.5 µM	48 µM	28.7 µM	42.2 µM	–	–
NC(=S)N=Nc1c(O)cc(Nc2ccc(Cl)cc2Cl)c2ccccc12	95.8 µM	> 100 µM	–	> 100 µM	> 100 µM	> 100 µM	26.3 µM	> 100 µM	> 100 µM	> 100 µM	–	> 100 µM	88.6 µM	> 100 µM	> 100 µM
Cc1cc(C)nc(NS(=O)(=O)c2ccc(Nc3c4ccccc4nc4c(C(=O)N5CCN(CCOS(C)(=O)=O)CC5)ccc(Cl)c34)cc2)n1	> 100 µM	> 100 µM	> 100 µM	> 100 µM	> 100 µM	> 100 µM	> 100 µM	> 100 µM	> 100 µM	> 100 µM	–	–	> 100 µM	–	–
COc1cc(/C=C/c2cc(=O)cc(/C=C/c3ccc(O)c(OC)c3)o2)ccc1O	> 100 µM	> 100 µM	> 100 µM	> 100 µM	> 100 µM	> 100 µM	> 100 µM	> 100 µM	> 100 µM	> 100 µM	> 100 µM	> 100 µM	> 100 µM	> 100 µM	–
CCOC(=O)C(NC(=O)c1ccc(N=NN(C)C)cc1)C(C)C (configuration not stated)	> 100 µM	> 100 µM	> 100 µM	> 100 µM	> 100 µM	> 100 µM	> 100 µM	> 100 µM	> 100 µM	> 100 µM	–	–	> 100 µM	–	–
COC(=O)C(CCCCNC(=O)CNC(=O)OCc1ccccc1)NC(=O)C(CCCCNC(=O)CNC(=O)OCc1ccccc1)NC(=O)OCc1ccccc1 (configuration not stated)	> 100 µM	> 100 µM	> 100 µM	> 100 µM	> 100 µM	> 100 µM	> 100 µM	> 100 µM	> 100 µM	54.2 µM	–	19.1 µM	> 100 µM	> 100 µM	> 100 µM
Brc1ccc2c(c1)-c1nc3c(cc1CC2)CCc1ccc(Br)cc1-3	> 100 µM	> 100 µM	–	> 100 µM	> 100 µM	> 100 µM	> 100 µM	> 100 µM	> 100 µM	> 100 µM	–	> 100 µM	> 100 µM	–	> 100 µM
COC(=O)c1sc2ncc3c(c2c1N)CC(C)CC3 (configuration not stated)	> 100 µM	> 100 µM	> 100 µM	> 100 µM	> 100 µM	> 100 µM	> 100 µM	> 100 µM	> 100 µM	> 100 µM	–	> 100 µM	> 100 µM	> 100 µM	> 100 µM
CC1=C(C(=O)NNC(=O)CC#N)CC(C(=O)NNC(=O)CC#N)=C(C)N1	> 100 µM	> 100 µM	–	> 100 µM	> 100 µM	> 100 µM	> 100 µM	> 100 µM	> 100 µM	> 100 µM	–	> 100 µM	> 100 µM	> 100 µM	> 100 µM
N#CC(C#N)=Cc1cccc(Oc2ccccc2)c1	36.6 µM	78.7 µM	61.3 µM	20 µM	28.1 µM	> 62.8 µM	34.2 µM	32.9 µM	> 100 µM	49 µM	–	–	59.4 µM	–	–
CN1c2ccccc2C(=O)NC12CCN(CC1COc3ccccc3O1)CC2 (configuration not stated)	41.5 µM	77.1 µM	> 100 µM	> 100 µM	> 100 µM	> 100 µM	> 100 µM	> 100 µM	98.4 µM	–	> 100 µM	> 100 µM	> 100 µM	> 100 µM	–
CNc1ccc2c(c1)Cc1ccccc1-2	74.7 µM	98.7 µM	91.2 µM	> 100 µM	> 100 µM	> 100 µM	> 100 µM	> 100 µM	71.1 µM	> 100 µM	91.5 µM	> 100 µM	> 100 µM	> 100 µM	–
NC(CCSCC(F)F)C(=O)O (configuration not stated)	> 100 µM	> 100 µM	> 100 µM	> 100 µM	> 100 µM	> 100 µM	> 100 µM	> 100 µM	> 100 µM	–	–	–	> 100 µM	–	–
C=C1CC2C(=O)N(c3ccccc3)C(=O)C2CC1n1[nH]c(=O)n(Cc2ccccc2)c1=O (configuration not stated)	> 100 µM	> 100 µM	> 100 µM	> 100 µM	> 100 µM	> 100 µM	> 100 µM	> 100 µM	> 100 µM	> 100 µM	–	–	> 100 µM	–	–
COc1ccc(CCCCl)c(C2=NCCc3ccccc32)c1	45 µM	> 100 µM	> 100 µM	> 100 µM	> 100 µM	> 100 µM	> 100 µM	> 100 µM	> 100 µM	> 100 µM	> 100 µM	> 100 µM	> 100 µM	> 100 µM	–
FC(F)=C(c1ccc(-c2ccc(Cl)cc2)cc1)C(F)(F)F	32.9 µM	> 100 µM	52.4 µM	28.4 µM	37.5 µM	–	37.8 µM	32 µM	31.9 µM	42.5 µM	68.7 µM	–	36.9 µM	34.6 µM	–
O=c1cc(-c2ccccc2F)[nH]c2cc3c(cc12)OCO3	4.41 µM	> 18.3 µM	> 100 µM	> 100 µM	> 77.5 µM	0.399 µM	28.8 µM	> 58.5 µM	2.13 µM	> 100 µM	–	> 50.9 µM	6.95 µM	0.48 µM	0.0396 µM
COC(=O)c1cc(C(=O)OC)cc(-c2ccc3c(c2)-c2nc4c(c(-c5ccc(OC)cc5)c2CC3)CCc2ccc(-c3cc(C(=O)OC)cc(C(=O)OC)c3)cc2-4)c1	> 100 µM	–	–	> 100 µM	> 100 µM	> 100 µM	> 100 µM	> 100 µM	> 100 µM	> 100 µM	–	> 100 µM	> 100 µM	> 100 µM	> 100 µM
CCC1C(=O)OCc2c1cc1n(c2=O)CCC12OCCO2 (configuration not stated)	> 100 µM	> 100 µM	> 100 µM	> 100 µM	> 100 µM	> 100 µM	> 100 µM	> 100 µM	> 100 µM	> 100 µM	–	–	> 100 µM	–	–
COC(=O)/C(=N\NC(=S)NN)C(C(=O)C(=O)Nc1ccccc1C(N)=O)c1nc2ccccc2[nH]c1=O (configuration not stated)	> 100 µM	> 100 µM	> 100 µM	> 100 µM	> 100 µM	> 100 µM	> 100 µM	> 100 µM	–	> 100 µM	–	–	> 100 µM	–	–
CCC1(CC)C(=O)NC(=S)N=C1N	–	> 100 µM	–	> 100 µM	> 100 µM	–	> 100 µM	> 100 µM	> 100 µM	> 100 µM	–	–	> 100 µM	–	–
OC(c1ccco1)C(F)(F)c1nc2ccccc2o1 (configuration not stated)	> 100 µM	> 100 µM	> 100 µM	> 100 µM	> 100 µM	> 100 µM	> 100 µM	> 100 µM	> 100 µM	> 100 µM	> 100 µM	> 100 µM	> 100 µM	> 100 µM	–
CCCC[C@@H]1CCN2C[C@@H](O)[C@@H](O)[C@H]2[C@@H]1O	> 100 µM	> 100 µM	–	> 100 µM	> 100 µM	> 100 µM	> 100 µM	> 100 µM	> 100 µM	> 100 µM	> 100 µM	> 100 µM	> 100 µM	–	–
CC1=CCC[C@H]2[C@](C)(CC3=CC(=O)C4SCCSC4C3=O)[C@@H](C)CC[C@]12C (some centres not stated)	26.7 µM	80.7 µM	53.6 µM	38.4 µM	64 µM	55.8 µM	35 µM	31 µM	31.2 µM	23.2 µM	–	63.8 µM	37.1 µM	66.9 µM	25.9 µM
O=C(c1ccccc1)[C@H]1Nc2cnccc2C2c3ccccc3CC21 (some centres not stated)	10.1 µM	23.1 µM	61.6 µM	18.9 µM	26.1 µM	> 100 µM	> 67 µM	> 38.4 µM	75.4 µM	29.9 µM	–	–	> 100 µM	–	–
NC(=O)NC(=NCc1ccccc1)NCc1ccccc1	> 100 µM	–	–	> 100 µM	> 100 µM	> 100 µM	> 100 µM	> 100 µM	–	> 100 µM	–	–	> 100 µM	–	–
NNC(=O)c1cccc2c1Oc1ccccc1S2	> 100 µM	> 100 µM	> 100 µM	> 100 µM	> 100 µM	> 100 µM	> 100 µM	> 100 µM	> 100 µM	> 100 µM	> 100 µM	> 100 µM	> 100 µM	> 100 µM	–

— PubChem BioAssay (NCI)
